Four compounds from US20250127821A1, “PHARMACEUTICAL COMPOSITION AND COSMETIC COMPOSITION” (I Peace, Inc., priority 2023, published 2025) can be followed below.

What all share (assay type): cell-based
For experiment [1], the system named is normal human umbilical vein endothelial cells. The experiment in a line: Prostacyclin production test (6-keto prostaglandin Fla ELISA). The conditions noted are these: positive control 10 μM, 24 hours. On the procedure:
Normal human umbilical vein endothelial cells (Lonza, CC2519AS) were seeded into a T-75 flask using medium (EGM-2, Lonza, CC-3162) and cultured in a CO2 incubator until 60% to 80% confluence. The cells were then detached from the T-75 flask using 0.05% trypsin-EDTA and phenol red. The detached cells were seeded into a 96-well plate at 10,000 cells/100 μL/well in medium and cultured in a CO2 incubator. The next day, the medium was replaced with 100 μL of medium containing test substances 1 through 7 at final concentrations of 5% and 20%, and the positive control substance at a final concentration of 10 μM, or medium without test or positive control substances. The cells were then cultured for 24 hours in a CO2 incubator. The culture supernatant was collected, and the amount of 6-keto prostaglandin Fla, a metabolite of prostacyclin, was measured using an ELISA kit (Abcam, ab133023) and a multi-spectral microplate reader (Varioskan Flash, Thermo Fisher Scientific).
In general terms: An ELISA detects its analyte on a solid surface through an enzyme-linked reagent.

Experiment [2] concerns adipocytes differentiated from normal human subcutaneous preadipocytes. The experiment in a line: Fat-decomposing assay (free glycerol in culture supernatant). The conditions noted are these: positive control 10 μM, 24 hours. On the procedure:
Normal human subcutaneous preadipocytes (Lonza, PT-5020) were seeded into a T-75 flask using a proliferation medium (PGM-2, 10% FBS, 2 mM L-glutamine, 50 μg/mL gentamicin, and 37 ng/mL amphotericin B-supplemented PBM, Lonza, PT-8002) and cultured in a CO2 incubator (37° C., 5% CO2, humidified) until they reached 60% to 80% confluence. The cells were then detached using 0.25% trypsin-EDTA and centrifuged. Subsequently, the cells were seeded into a 96-well plate at 10,000 cells/100 μL/well in proliferation medium and incubated in a CO2 incubator. The following day, the medium was replaced with 100 μL of differentiation medium (PGM-2 supplemented with insulin, dexamethasone, indomethacin, and isobutyl-methylxanthine; Lonza, PT-8002), and the cells were cultured for seven days to induce differentiation of preadipocytes into adipocytes. […] Thereafter, the culture supernatant was collected, and the amount of free glycerol in the supernatant was measured using a fat-decomposing assay kit (Cayman, 10009381). […] Specifically, a multi-spectral microplate reader (Varioskan Flash, Thermo Fisher Scientific) was used to measure the absorbance of the supernatant at a wavelength of 540 nm, and the relative concentration of free glycerol was calculated. […]

Experiment [3] relates to normal human skeletal muscle myoblasts. The experiment in a line: Myotube differentiation promotion test (anti-MHC staining, differentiation index). The conditions noted are these: positive control 50 nmol/L, 3 days. On the procedure:
Using proliferation medium (SkGM-2, Lonza, CC-3245), normal human skeletal muscle myoblasts (Lonza, CC-2580) were seeded into a T-75 flask and cultured in a CO2 incubator until approximately 60% confluence. The cells were then detached from the T-75 flask using 0.05% trypsin-EDTA and phenol red. The detached cells were seeded into a 96-well plate at 7,500 cells/100 μL/well in proliferation medium and cultured in a CO2 incubator.
The next day, the medium was replaced with 100 μL of differentiation medium (2% horse serum-supplemented DMEM: F12) containing test substances 1 through 7 at final concentrations of 5% and 20% and the positive control substance at a final concentration of 50 nmol/L, or differentiation medium without test or positive control substances. The cells were then cultured for 3 days in a CO2 incubator to induce differentiation of myoblasts into myotubes.
Subsequently, the medium was removed from the wells, and 100 μL of 4% paraformaldehyde at 4° C. was added to each well, followed by incubation at 4° C. for 15 minutes to fix the cells. […]
From the captured images, the number of cell nuclei and the number of nuclei positive for myosin heavy chain were measured, and the differentiation index I (%) was calculated according to formula (1) below. […]

The test system of experiment [4] is human chondrocyte cell line (SW1353). The experiment in a line: Hyaluronic acid production test (ELISA). The conditions noted are these: positive control 10 mmol/L. On the procedure:
Using proliferation medium (DMEM/F-12 supplemented with 10% FBS and 1% penicillin-streptomycin mixture), a human chondrocyte cell line (SW1353, ATCC, HTB-94) was seeded into a T-75 flask and cultured in a CO2 incubator until 60-80% confluency. The cells were then detached from the T-75 flask using 0.25% trypsin-EDTA and phenol red. Subsequently, using the proliferation medium, the human chondrocytes were seeded into a 96-well plate at a density of 10,000 cells/100 μL/well and cultured in a CO2 incubator.
The following day, the medium was replaced with 100 μL of assay medium (DMEM/F-12 supplemented with 1% FBS and 1% penicillin-streptomycin mixture), containing each of test substances 1 through 7 at final concentrations of 5% and 20% or a positive control substance at a final concentration of 10 mmol/L, or assay medium without test substances or positive control. The human chondrocytes were cultured in a CO2 incubator for 24 or 72 hours.
The culture supernatant was collected, and the amount of hyaluronic acid was measured using an ELISA kit (Hyaluronan Quantikine ELISA Kit, R&D Systems) and a multi-spectral microplate reader (Varioskan Flash, Thermo Fisher Scientific).

Turning to `CCCCC/C=C\C/C=C\C/C=C\C/C=C\CCCC(=O)O` [arachidonic acid], the “levels of 6-keto prostaglandin Fla compared to the control” value in experiment [1] is “significantly higher”.

On to `CC(C)NCC(O)c1ccc(O)c(O)c1` (centres unmarked) [isoproterenol], for which the “amount of fat-decomposition (free glycerol) compared to the control” value in experiment [2] is listed as “significantly higher”.

Consider insulin, for which the “differentiation index to myotubes compared to the control” value in experiment [3] is recorded as “significantly higher”.

Turning to `CC(=O)N[C@H]1C(O)O[C@H](CO)[C@@H](O)[C@@H]1O` (some centres unmarked) [N-acetylglucosamine], the “hyaluronic acid production compared to the control” value in experiment [4] (cultured 24 hours) and in experiment [4] (cultured 72 hours) was “significantly higher” throughout.
